{"source": "ChEMBL document CHEMBL3734729", "about": "“Synthesis and comparison of the biological activity of monocyclic phosphonate, difluorophosphonate and phosphate analogs of the natural AChE inhibitor cyclophostin” (Bioorg Med Chem, 2015)", "key": {"Acetylcholinesterase [1]": {"molecular_target": "T1, Acetylcholinesterase (Homo sapiens, UniProt P22303)", "T1 sequence (P22303 whole entry)": "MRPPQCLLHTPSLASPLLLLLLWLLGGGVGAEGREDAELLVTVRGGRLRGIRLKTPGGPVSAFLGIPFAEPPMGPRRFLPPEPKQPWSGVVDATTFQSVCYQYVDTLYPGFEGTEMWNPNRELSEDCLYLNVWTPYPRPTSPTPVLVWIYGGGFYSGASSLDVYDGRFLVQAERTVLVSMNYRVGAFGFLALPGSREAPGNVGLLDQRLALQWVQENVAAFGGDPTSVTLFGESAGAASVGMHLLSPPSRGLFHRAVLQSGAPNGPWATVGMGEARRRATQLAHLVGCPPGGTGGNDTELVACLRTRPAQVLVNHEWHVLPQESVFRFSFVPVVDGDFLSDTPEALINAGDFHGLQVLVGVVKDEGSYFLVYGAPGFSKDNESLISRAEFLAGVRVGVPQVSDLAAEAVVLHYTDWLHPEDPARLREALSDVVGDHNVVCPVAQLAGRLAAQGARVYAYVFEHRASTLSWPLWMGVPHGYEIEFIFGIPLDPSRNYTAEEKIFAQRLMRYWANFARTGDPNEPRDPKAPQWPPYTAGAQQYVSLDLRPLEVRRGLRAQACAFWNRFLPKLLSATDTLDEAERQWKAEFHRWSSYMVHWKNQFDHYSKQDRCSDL", "assay": "Inhibition of human AChE at pH 8"}, "Acetylcholinesterase [2]": {"molecular_target": "T1, Acetylcholinesterase", "assay": "Inhibition of human AChE at pH 6"}, "[3]": {"assay": "Drug degradation in sodium phosphate buffer at pH 8 after 30 mins by NMR analysis", "assay_type": "physicochemical", "details": "read-out: Drug degradation"}, "[4]": {"assay": "Drug degradation in sodium phosphate buffer at pH 8 after 24 hrs by NMR analysis", "assay_type": "physicochemical", "details": "read-out: Drug degradation"}, "[5]": {"assay": "Drug degradation in sodium phosphate buffer at pH 8 after 1 hr by NMR analysis", "assay_type": "physicochemical", "details": "read-out: Drug degradation"}, "Acetylcholinesterase [6]": {"molecular_target": "T1, Acetylcholinesterase", "assay": "Irreversible inhibition of AChE (unknown origin)"}, "Acetylcholinesterase [7]": {"molecular_target": "Acetylcholinesterase (Musca domestica, UniProt Q7YWJ9)", "sequence (Q7YWJ9 whole entry)": "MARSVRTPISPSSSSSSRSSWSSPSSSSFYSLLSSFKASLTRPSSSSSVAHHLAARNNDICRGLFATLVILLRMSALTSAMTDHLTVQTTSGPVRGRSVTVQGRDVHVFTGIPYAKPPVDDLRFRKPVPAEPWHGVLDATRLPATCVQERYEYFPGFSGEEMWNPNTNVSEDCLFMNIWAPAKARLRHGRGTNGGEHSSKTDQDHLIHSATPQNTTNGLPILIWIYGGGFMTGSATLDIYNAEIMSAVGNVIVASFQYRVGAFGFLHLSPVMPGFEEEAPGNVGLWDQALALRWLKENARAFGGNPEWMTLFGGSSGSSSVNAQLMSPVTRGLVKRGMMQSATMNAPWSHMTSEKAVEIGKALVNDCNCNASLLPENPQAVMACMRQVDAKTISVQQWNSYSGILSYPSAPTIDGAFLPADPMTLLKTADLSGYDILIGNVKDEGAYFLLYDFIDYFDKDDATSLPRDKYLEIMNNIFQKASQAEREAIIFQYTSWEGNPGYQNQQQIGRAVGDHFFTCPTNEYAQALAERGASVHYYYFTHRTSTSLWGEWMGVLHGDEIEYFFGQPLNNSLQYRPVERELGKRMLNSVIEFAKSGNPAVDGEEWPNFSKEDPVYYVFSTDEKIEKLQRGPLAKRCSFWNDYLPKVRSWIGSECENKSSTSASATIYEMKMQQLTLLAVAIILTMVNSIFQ", "assay": "Inhibition of housefly CSMA AChE"}, "Acetylcholinesterase [8]": {"molecular_target": "T1, Acetylcholinesterase", "assay": "Inhibition of AChE (unknown origin)"}, "[9]": {"assay": "Drug degradation in MES buffer at pH 6.5 after 1 hr by NMR analysis", "assay_type": "physicochemical", "details": "read-out: Drug degradation"}, "[10]": {"assay": "Drug degradation in sodium phosphate buffer at pH 7 after 1 hr by NMR analysis", "assay_type": "physicochemical", "details": "read-out: Drug degradation"}, "[11]": {"assay": "Drug degradation in sodium phosphate buffer at pH 7 after 30 mins by NMR analysis", "assay_type": "physicochemical", "details": "read-out: Drug degradation"}, "[12]": {"assay": "Drug degradation in sodium phosphate buffer at pH 7 after 24 hrs by NMR analysis", "assay_type": "physicochemical", "details": "read-out: Drug degradation"}, "[13]": {"assay": "Drug degradation in MES buffer at pH 6 after 1 hr by NMR analysis", "assay_type": "physicochemical", "details": "read-out: Drug degradation"}, "[14]": {"assay": "Drug degradation in MES buffer at pH 6 after 24 hrs by NMR analysis", "assay_type": "physicochemical", "details": "read-out: Drug degradation"}, "[15]": {"assay": "Drug degradation in MES buffer at pH 6.5 after 30 mins by NMR analysis", "assay_type": "physicochemical", "details": "read-out: Drug degradation"}, "[16]": {"assay": "Drug degradation in MES buffer at pH 6 after 30 mins by NMR analysis", "assay_type": "physicochemical", "details": "read-out: Drug degradation"}}}
{"smiles": "CCOP1(=O)CCCC(C(=O)OC)=C(C)O1", "note": "(configuration not stated)", "values": [{"measurement": "IC50", "setting": "Acetylcholinesterase [1]", "result": 7.5, "unit": "µM"}, {"measurement": "IC50", "setting": "Acetylcholinesterase [2]", "result": 8.9, "unit": "µM"}]}
{"smiles": "COP1(=O)OC[C@@H]2COC(=O)C2=C(C)O1", "note": "(single isomer, unassigned)", "values": [{"measurement": "IC50", "setting": "Acetylcholinesterase [1]", "result": 0.035, "unit": "µM"}]}
{"smiles": "COP1(=O)OCCC(C(=O)OC(C)(C)C)=C(C)O1", "note": "(configuration not stated)", "values": [{"measurement": "IC50", "setting": "Acetylcholinesterase [1]", "result": 5.9, "unit": "µM"}, {"measurement": "IC50", "setting": "Acetylcholinesterase [2]", "result": 6.1, "unit": "µM"}]}
{"smiles": "COC(=O)C1=C(C)OP(=O)(OC)CCC1", "note": "(configuration not stated)", "values": [{"measurement": "degraded at 0.5 h", "setting": "[3]", "result": 2, "unit": "%"}, {"measurement": "degraded at 24 h", "setting": "[4]", "result": 9.6, "unit": "%"}, {"measurement": "degraded at 1 h", "setting": "[5]", "result": 2, "unit": "%"}, {"measurement": "IC50", "setting": "Acetylcholinesterase [1]", "result": 12, "unit": "µM"}, {"measurement": "IC50", "setting": "Acetylcholinesterase [2]", "result": 26, "unit": "µM"}]}
{"smiles": "COP1(=O)OC[C@H]2COC(=O)C2=C(C)O1", "note": "(single isomer, unassigned) [CYCLOPHOSTIN]", "values": [{"measurement": "Ki", "setting": "Acetylcholinesterase [6]", "result": 0.14, "unit": "µM"}, {"measurement": "IC50", "setting": "Acetylcholinesterase [7]", "result": 0.00076, "unit": "µM"}, {"measurement": "IC50", "setting": "Acetylcholinesterase [8]", "result": 0.045, "unit": "µM"}, {"measurement": "IC50", "setting": "Acetylcholinesterase [1]", "result": 0.04, "unit": "µM"}]}
{"smiles": "COC(=O)C1=C(C)OP(=O)(OC)OCC1", "note": "(configuration not stated)", "values": [{"measurement": "degraded at 0.5 h", "setting": "[3]", "result": 0, "unit": "%"}, {"measurement": "degraded at 24 h", "setting": "[4]", "result": 57, "unit": "%"}, {"measurement": "degraded at 1 h", "setting": "[5]", "result": 4, "unit": "%"}, {"measurement": "IC50", "setting": "Acetylcholinesterase [1]", "result": 1.03, "unit": "µM"}, {"measurement": "IC50", "setting": "Acetylcholinesterase [2]", "result": 1.04, "unit": "µM"}]}
{"smiles": "CCOP1(=O)OC(C)=C(C(=O)OC)CCC1(F)F", "note": "(configuration not stated)", "values": [{"measurement": "degraded at 1 h", "setting": "[9]", "result": 7.2, "unit": "%"}, {"measurement": "degraded at 1 h", "setting": "[10]", "result": 34, "unit": "%"}, {"measurement": "degraded at 0.5 h", "setting": "[11]", "result": 20, "unit": "%"}, {"measurement": "degraded at 24 h", "setting": "[12]", "result": 100, "unit": "%"}, {"measurement": "degraded at 0.5 h", "setting": "[3]", "result": 5, "unit": "%"}, {"measurement": "degraded at 24 h", "setting": "[4]", "result": 100, "unit": "%"}, {"measurement": "degraded at 1 h", "setting": "[13]", "result": 4.1, "unit": "%"}, {"measurement": "degraded at 24 h", "setting": "[14]", "result": 65, "unit": "%"}, {"measurement": "degraded at 1 h", "setting": "[5]", "result": 50, "unit": "%"}, {"measurement": "IC50", "setting": "Acetylcholinesterase [1]", "result": "> 100", "unit": "µM"}, {"measurement": "degraded at 0.5 h", "setting": "[15]", "result": 2.8, "unit": "%"}, {"measurement": "degraded at 0.5 h", "setting": "[16]", "result": 0.5, "unit": "%"}, {"measurement": "IC50", "setting": "Acetylcholinesterase [2]", "result": "> 100", "unit": "µM"}]}
